Results published in article PMC6278664, “Highly Cancer Selective Antiproliferative Activity of Natural Prenylated Flavonoids” (Molecules, 2018).
Like-named read-outs stand apart in the source and are kept apart here.

How the values were obtained:
[1] = system: MCF7 human breast cancer cell line; test: SRB antiproliferative assay, MCF7; format: cell-based; settings: for IC50: SRB, 72 h, mean ± SD; for Selectivity index SIA, MCF-7: IC50 HLMEC / IC50 MCF-7; for Selectivity index SIB, MCF-7: IC50 MCF-10A / IC50 MCF-7
Method: (§1) We determined the effect of various structural factors in the substrates on the antiproliferative activity against those selected to the study cell lines: the location and/or the presence of the prenyl group, the chalcone/flavanone skeleton and the presence of an O-methyl group at C-5 in flavanones. Flavonoids presented in Figure 1 were tested for the antiproliferative activity towards eight cancer cell lines including estrogen-dependent (MCF7 and T-47D) and two normal ones (HLMEC and MCF 10A). The in vitro antiproliferative activity was measured using SRB assay. The results are presented in Figure 2 (and in the supplement in Table S1). The antiproliferative activity was measured separately for each of the experiments and given as the average IC50 (the concentration of tested compound which inhibits 50% of the cells population). Cisplatin (CP), a common anticancer drug, was used as a positive control.
(§2) The following established in vitro cell lines were applied: MCF7, T-47D, MDA-MB-231 (human breast cancer cell line), A2780 (human ovarian cancer cell line), A2780cis (human cisplatin-resistant ovarian cancer cell line), PC-3 and DU 145 (human prostate cancer cell lines), HT-29 (human colon cancer cell line), HLMEC (human lung microvascular endothelial cell line), and MCF 10A (human mammary epithelial cells line).
(§3) The cell lines: MDA-MB-231, HT-29, PC-3, DU 145, and MCF 10A were obtained from the American Type Culture Collection (Rockville, MD, USA), MCF7, T-47D, A2780, A2780cis from the European Collection Cell Cultures (Sigma-Aldrich, Chemie GmbH, Steinheim, Germany), while the HLMEC cell line was obtained by M. Paprocka from the institute. All cell lines are being maintained in the Institute of Immunology and Experimental Therapy (Wrocław, Poland). DU 145 and MCF7 cells were cultured in Eagle medium (supplemented with 4mM L-glutamine, 10% fetal bovine serum, 1 mM sodium pyruvate for DU 145 cells or 2 mM L-glutamine, 1% mem non-essential amino acid solution and 8 µg/mL insulin and 10% fetal bovine serum for MCF7). […] HT-29 and T-47D cell lines were cultured in RPMI 1640 + OPTI-MEM medium supplemented with 2 mM L-glutamine, 5% fetal bovine serum and 8 µg/mL of insulin (T-47D) or 1 mM sodium pyruvate (HT-29). MDA-MB-231, PC-3 and HLMEC cell lines were cultured in RPMI 1640 medium supplemented with 2 mM L-glutamine and 10% fetal bovine serum. Medium for MCF 10A cell line consisted of F-12 nutrient mixture supplemented with cholera toxin (0.05 µg/mL), insulin (10 µg/mL), hydrocortisone (0.5 µg/mL), 5% horse serum, and EGFH (20 ng/mL). All the culture media contained antibiotics: 100 units/mL penicillin (Polfa Tarchomin SA, Warsaw, Poland), and 100 µg/mL streptomycin (Sigma-Aldrich, Chemie GmbH, Steinheim, Germany). All cell lines were grown at 37 °C with 5% CO2 humidified atmosphere.
(§4) Twenty-four hours before the incubation with the tested compounds, the cells were seeded in 96-plates (Sarstedt, Germany) at a density of 1 × 10^4 cells per well (0.75 × 10^4 per well for MCF7 and 1 × 10^3 per well for HLMEC) in 100 µL of a culture medium.
(§5) Each agent at each concentration (from 0.1 to 100 µg/mL) was tested in a single experiment, which was repeated four to five times. […] Cisplatin was used as a reference drug.
(§6) The results were calculated as the IC50 (inhibitory concentration 50%)—the concentration of the tested compound which inhibits 50% of the cells population. IC50 values were calculated for each experiment separately and mean values ± SD are presented in the Table S1 in the Supplementary Materials. Each compound at each concentration was tested in triplicate in a single experiment, which was repeated four to five times.
(§7) The cells were fixed in situ by gently adding cold 50% trichloroacetic acid (50 µL per well). The plates were incubated at 4 °C for 1h and then washed five times with tap water. […]

[2] = system: DU 145 human prostate cancer cell line; test: SRB antiproliferative assay, DU 145; format: cell-based; settings: for IC50: SRB, 72 h, mean ± SD; for Selectivity index SIA, Du-145: IC50 HLMEC / IC50 Du-145; for Selectivity index SIB, Du-145: IC50 MCF-10A / IC50 Du-145
Method: as §1, §2, §3, §4, §5, §6, §7

[3] = system: A2780cis human cisplatin-resistant ovarian cancer cell line; test: SRB antiproliferative assay, A2780cis; format: cell-based; settings: for IC50: SRB, 72 h, mean ± SD, read-out: Cancer cell line, IC50, A-2780cis; for Selectivity index SIA, A-2780cis: IC50 HLMEC / IC50 A-2780cis; for Selectivity index SIB, A-2780cis: IC50 MCF-10A / IC50 A-2780cis
Method: as §1, §2, §3, §4, §5, §6, §7

[4] = system: PC-3 human prostate cancer cell line; test: SRB antiproliferative assay, PC-3; format: cell-based; settings: for IC50: SRB, 72 h, mean ± SD; for Selectivity index SIA, PC-3: IC50 HLMEC / IC50 PC-3; for Selectivity index SIB, PC-3: IC50 MCF-10A / IC50 PC-3
Method: as §1, §2, §3, §4, §5, §6, §7

[5] = system: A2780 human ovarian cancer cell line; test: SRB antiproliferative assay, A2780; format: cell-based; settings: for IC50: SRB, 72 h, mean ± SD, read-out: Cancer cell line, IC50, A-2780; for Selectivity index SIA, A-2780: IC50 HLMEC / IC50 A-2780; for Selectivity index SIB, A-2780: IC50 MCF-10A / IC50 A-2780
Method: as §1, §2, §3, §4, §5, §6, §7

[6] = system: HLMEC human lung microvascular endothelial cell line; test: SRB antiproliferative assay, HLMEC (normal); format: cell-based; settings: 72 h, mean ± SD
[7] = system: MCF 10A human mammary epithelial cells line; test: SRB antiproliferative assay, MCF 10A (normal); format: cell-based; settings: 72 h, mean ± SD, read-out: Normal cell line, IC50, MCF-10A
Method: as §1, §2, §3, §4, §5, §6, §7

[8] = system: MDA-MB-231 human breast cancer cell line; test: SRB antiproliferative assay, MDA-MB-231; format: cell-based; settings: for IC50: SRB, 72 h, mean ± SD; for Selectivity index SIA, MDA-MB-231: IC50 HLMEC / IC50 MDA-MB-231; for Selectivity index SIB, MDA-MB-231: IC50 MCF-10A / IC50 MDA-MB-231
Method: as §1, §2, §3, §4, §5, §6, §7

[9] = system: HT-29 human colon cancer cell line; test: SRB antiproliferative assay, HT-29; format: cell-based; settings: for IC50: SRB, 72 h, mean ± SD; for Selectivity index SIA, HT-29: IC50 HLMEC / IC50 HT-29; for Selectivity index SIB, HT-29: IC50 MCF-10A / IC50 HT-29
[10] = cited from earlier work
[11] = system: T-47D human breast cancer cell line; test: SRB antiproliferative assay, T-47D; format: cell-based; settings: for IC50: SRB, 72 h, mean ± SD; for Selectivity index SIA, T-47D: IC50 HLMEC / IC50 T-47D; for Selectivity index SIB, T-47D: IC50 MCF-10A / IC50 T-47D
Method: as §1, §2, §3, §4, §5, §6, §7

Compound | IC50 ([1]; Homo sapiens, MCF7, 72 h) [µM] | Selectivity index SIA, MCF-7 [1] | Selectivity index SIB, MCF-7 [1] | IC50 ([2]; Homo sapiens, DU-145) [µM] | Selectivity index SIA, Du-145 [2] | Selectivity index SIB, Du-145 [2] | IC50 ([3]; Homo sapiens, A2780cis) [µM] | Selectivity index SIA, A-2780cis [3] | Selectivity index SIB, A-2780cis [3] | IC50 ([4]; Homo sapiens) [µM] | Selectivity index SIA, PC-3 [4] | Selectivity index SIB, PC-3 [4] | Selectivity index SIA, A-2780 [5] | Selectivity index SIB, A-2780 [5] | Selectivity index SIA, MDA-MB-231 [8] | Selectivity index SIB, MDA-MB-231 [8] | Selectivity index SIA, HT-29 [9] | Selectivity index SIB, HT-29 [9] | Selectivity index SIA, T-47D [11] | Selectivity index SIB, T-47D [11] | further results
CC(C)=CCc1c(O)cc(O)c2c1OC(c1ccc(O)cc1)CC2=O (stereo not drawn) [8PN, 8-(3,3-dimethylallyl)-5,7,4′-trihydroxyflavanone] | 49.5 ± 7.36 | 0.48 | 1.83 | 60.6 ± 6.66 | 0.39 | 1.50 | 66.4 ± 10.1 | 0.36 | 1.37 | 51.4 ± 11.3 | 0.47 | 1.77 | 0.92 | 3.50 | 0.37 | 1.42 | 0.27 | 1.00 | 0.90 | 3.40 | IC50 ([5]; Homo sapiens, A2780): 25.9 ± 8.32 µM; IC50 ([6]; Homo sapiens, Endothelial cell): 23.9 ± 10.9 µM; IC50 ([7]; Homo sapiens, MCF-10A): 90.7 ± 19.8 µM; IC50 ([8]; Homo sapiens, MDA-MB-231): 63.8 ± 7.27 µM; IC50 ([9]; Homo sapiens, HT-29): 89.8 ± 3.42 µM; Glucuronidation ([10]; breast tissue study of Bolca and co-workers): > 90%; IC50 ([11]; Homo sapiens, T47D): 26.7 ± 9.7 µM
8-(3,3-dimethylallyl)-4,7-dihydroxy-5-methoxyflavanone [IXN] |  | 0.75 | 4.31 |  | 0.21 | 1.22 |  | 1.07 | 6.19 |  | 0.23 | 1.35 | 1.58 | 9.09 | 0.29 | 1.66 | 0.41 | 2.36 | 0.47 | 2.70 | IC50 [1]: 16.7 ± 0.88 µM; IC50 [2]: 59.2 ± 5.73 µM; IC50 [3]: 11.7 ± 1.44 µM; IC50 [4]: 53.2 ± 10.6 µM; IC50 [5]: 7.93 ± 1.65 µM; IC50 [6]: 12.5 ± 5.65 µM; IC50 [7]: 72.1 ± 21.7 µM; IC50 [8]: 43.3 ± 10.3 µM; IC50 [9]: 30.6 ± 1 µM; Glucuronidation ([10]; in vivo): > 90%; IC50 [11]: 26.8 ± 6.44 µM
COc1cc(O)c(CC=C(C)C)c(O)c1C(=O)CCc1ccc(O)cc1 [2HXN, 3′-(3,3-dimethylallyl)-4,2′,4′-trihydroxy-6′-methoxy-α,β-dihydrochalcone] | 10.1 ± 2.31 | 1.41 | 7.15 | 13 ± 4.2 | 1.09 | 5.56 | 11.6 ± 3.36 | 1.22 | 6.22 | 16.3 ± 5.22 | 0.87 | 4.43 | 7.87 | 40.03 | 1.41 | 7.19 | 1.16 | 5.89 | 1.95 | 9.91 | IC50 ([5]; Homo sapiens, A2780): 1.8 ± 0.64 µM; SIA against A2780, times higher than the reference ([5]; ratio of SIA to SIA of cisplatin): 5-8 times; IC50 ([6]; Homo sapiens, Endothelial cell): 14.2 ± 4.24 µM; IC50 ([7]; Homo sapiens, MCF-10A): 72 ± 8.55 µM; IC50 ([8]; Homo sapiens, MDA-MB-231): 10 ± 3.26 µM; IC50 ([9]; Homo sapiens, HT-29): 12.2 ± 2.99 µM; IC50 ([11]; Homo sapiens, T47D): 7.27 ± 3.05 µM
CC(C)=CCc1c(O)cc2c(c1O)C(=O)CC(c1ccc(O)cc1)O2 (stereo not drawn) [6PN, 6-(3,3-dimethylallyl)-5,7,4′-trihydroxyflavanone] | 43.2 ± 4.37 | 0.32 | 2.54 | 79.6 ± 8.89 | 0.17 | 1.38 | 81.7 ± 17.7 | 0.17 | 1.35 | 75.5 ± 29.8 | 0.18 | 1.46 | 0.31 | 2.49 | 0.22 | 1.76 | 0.21 | 1.70 | 0.86 | 6.87 | IC50 ([5]; Homo sapiens, A2780): 44.2 ± 14.7 µM; IC50 ([6]; Homo sapiens, Endothelial cell): 13.7 ± 5.16 µM; IC50 ([7]; Homo sapiens, MCF-10A): 110 ± 33 µM; IC50 ([8]; Homo sapiens, MDA-MB-231): 62.6 ± 19.5 µM; IC50 ([9]; Homo sapiens, HT-29): 64.6 ± 17.1 µM; IC50 ([11]; Homo sapiens, T47D): 16 ± 3.74 µM
O=C1C[C@@H](c2ccc(O)cc2)Oc2cc(O)cc(O)c21 [NG, Naringenin, reference compound] | 131 ± 6.11 | 0.90 | 1.43 | 134 ± 12.9 | 0.88 | 1.40 | 109 ± 17 | 1.07 | 1.71 | 171 ± 28.8 | 0.68 | 1.09 | 1.17 | 1.87 | 0.71 | 1.13 | 0.90 | 1.43 | 1.12 | 1.79 | IC50 [1]: 187 ± 72.4 µM; IC50 ([5]; Homo sapiens, A2780): 100 ± 4.77 µM; IC50 ([6]; Homo sapiens, Endothelial cell): 117 ± 32.3 µM; IC50 ([7]; Homo sapiens, MCF-10A): 187 ± 72.4 µM; IC50 ([8]; Homo sapiens, MDA-MB-231): 166 ± 82.4 µM; IC50 ([9]; Homo sapiens, HT-29): 131 ± 28.2 µM; IC50 ([11]; Homo sapiens, T47D): 105 ± 48.3 µM
N.N.[Cl][Pt][Cl] [Cisplatin (CP), Cisplatin, reference compound] |  |  |  |  |  |  |  |  |  |  |  |  |  |  |  |  |  |  |  |  | IC50 [1]: 6.29 ± 1.05 µM; IC50 [2]: 2.73 ± 1.32 µM; IC50 [3]: 12.1 ± 1.27 µM; IC50 [4]: 11.4 ± 2.23 µM; IC50 [5]: 0.97 ± 0.46 µM; IC50 [6]: 0.93 ± 0.28 µM; IC50 [7]: 13.6 ± 4.93 µM; IC50 [8]: 16.9 ± 5.45 µM; IC50 [9]: 9.56 ± 3.75 µM; IC50 [11]: 22.2 ± 7.32 µM
